Consider four compounds from patent US10106572B1, “Supramolecular hacky sacks (SHS), method of synthesis and applications thereof” (University of Puerto Rico, priority 2014, dated 2018).

“And” between values parts separate entries of the source, which are not always exact repeats. Equal values may be shown once.

The nature of data set [1]: Isothermal turbidity, transition pH. Format: physicochemical. Conditions: for pKa: previously estimated, imidazole-containing ImAG. How it is done: (§1) Solutions of 0.650 mL of ImAGhD2OH were prepared at 5 mM with 4 M KI. In the case of ImAGpD2OH, the solutions prepared were 5 mM with 2 M KI. By following this procedure the following ratio is recommended between ImAGhD2OH (or ImAGpD2OH) with KI salt: 0-10 mM of ImAGhD2OH (or ImAGpD2OH) with 2-4 M KI. To dissolve the solids it was prepared a 0.1 M sodium acetate buffer for pH values of 5, 5.1, 5.2, 5.3, 5.4, 5.5, 5.6, 5.7, 5.8, 5.9. For pH 6-7, PBS from Fisher Scientific was used. The samples were put in the refrigerator (−10° C.) overnight (˜12 h) for equilibration. This sample concentration was used for turbidity experiments, DSC, and DLS experiments. The concentrations of the resulting assemblies of SGQ and f-SHS were calculated in terms of the molecular weights of monomeric 8ArG derivative ImAGpD2OH or ImAGhD2OH.
Before the imidazole modification of ImAGpD2OH and ImAGhD2OH, chalcone imidazole standard derivative (E)-3-(1-methyl-1H-imidazol-2-yl)-1-phenylprop-2-en-1-one (ImAG std) was synthesized by the same aldol condensation method to obtain an estimation of the pKa by measuring the absorbance at different pHs in a Varian UV-visible spectrometer, Model Cary Bio-100 as shown in FIG. 14. For the transition pH measurement, Isothermal measurements at 26.0° C. were performed in a SPECTRAmax 340 microplate reader at 650 nm. In these experiments 100 μL of sample was added in each well in triplicate for pH: 5, 5.1, 5.2, 5.3, 5.4, 5.5, 5.6, 5.7, 5.8, 5.9, 6.0, 6.5, 7.0 and 7.5. After the microplate wells were filled, the microplate was placed in the refrigerator (−10° C.) for equilibration. Afterwards, an 85% weighted curve fit was performed to the obtained graph. According to the standard experiments performed, the pKa of ImAG std is between 5.5 and 6.
Aside from the effect of the pH on the precise assembly of the nanoglobular SGQs, we observed, at 26° C., a pH-responsive phase transition where, at pH 5 the system is in solution, but changing it to pH 7 results in the solution becoming cloudy.

The nature of data set [2]: Turbidimetry studies, cloud-point temperature (Tcp). Format: physicochemical. How it is done:
as §1
This Tcp, which is measured by turbidimetry studies in UV-Vis, is the transition temperature to form the cluster of self-arranged supramolecular structures known as supramolecular hacky sacks (SHS). The turbidity measurements were performed at 650 nm using a Varian UV-visible spectrometer, Model Cary Bio-100. The heating rate was adjusted at 2.0° C./min using Cary temperature controller apparatus from Varian.

The nature of data set [3]: Differential scanning calorimetry (DSC) of SGQ assemblies. Format: physicochemical. Conditions: for Tt: LCST transition. How it is done: The ΔGcal and ΔScal values shown in this table correspond to those calculated using the values of Tt, Tm, and ΔHcal from the instrument. All ΔG values were calculated at a temperature of 20° C.
Differential Scanning calorimetry (DSC) analyses were performed on a VP-DSC Micro-Calorimeter from MicroCal and Origin (v.7) was used for data processing. For the experiment, the buffer was first degasified and the experiment was carried out as a blank in both sample and reference cell. Then, the sample was degasified, and the blank buffer in the sample cell to be substituted with sample was removed. Afterwards, the experiment was performed with a temperature ramp of 0° C.-80° C. for 4 cycles.
Background: In DSC, transitions show as peaks or steps in heat flow.

Data set [4] concerns neuroblastoma (SH-SY5Y) cells. The experiment in a line: MTT viability assay. Format: cell-based, human. Conditions: 0.2 μM DOX.
A short description of data set [5]: pKa estimation by UV-VIS absorbance at different pHs. It is filed as physicochemical. Conditions: UV absorbance at pH 5-7.5. An excerpt:
During the synthesis of derivatives ImAGhD2OH and ImAGpD2OH, an ImAG std (with a molecular structure as shown in FIG. 8) was constructed to obtain information of the pKa of the derivative by UV-VIS measurements. This allowed to study the effect of the functionality added in the 8ArG derivative. Derivative (E)-3-(1-methyl-1H-imidazol-2-yl)-1-phenylprop-2-en-1-one (ImAG std), with a chemical formula C13H12N2O, offers an alternative method to determine the pKa without having to perform the entire synthetic sequence for the corresponding compounds ImAGhD2OH and ImAGpD2OH. In the case of ImAG standard, the same procedure as above was followed, but the obtained solid was washed with ether and hexane. ImAG std was characterized as shown in FIG. 9 and FIG. 10 by using ^1H NMR and ^13C NMR, respectively. Yellow solid, mp (125.2-126.3) ° C. […]
Before the imidazole modification of ImAGpD2OH and ImAGhD2OH, chalcone imidazole standard derivative (E)-3-(1-methyl-1H-imidazol-2-yl)-1-phenylprop-2-en-1-one (ImAG std) was synthesized by the same aldol condensation method to obtain an estimation of the pKa by measuring the absorbance at different pHs in a Varian UV-visible spectrometer, Model Cary Bio-100 as shown in FIG. 14. For the transition pH measurement, Isothermal measurements at 26.0° C. were performed in a SPECTRAmax 340 microplate reader at 650 nm. […]

Where [6] appears, read: ImAGhD2OH, pH 5.0, calculated at 20° C.
Setting [7] is: ImAGhD2OH, pH 5.5, calculated at 20° C.
The mark [8] stands for this setting: ImAGhD2OH, pH 6:0, calculated at 20° C.
[9] abbreviates: ImAGhD2OH, pH 6.5, calculated at 20° C.
Setting [10] is: ImAGhD2OH, pH 7.0, calculated at 20° C.
Setting [11] is: ImAGpD2OH, pH 5.0, calculated at 20° C.
Setting [12] is: ImAGpD2OH, pH 7.0, calculated at 20° C.

For the compound `Cn1ccnc1/C=C/C(=O)c1cccc(-c2nc3c(=O)[nH]c(N)nc3n2[C@H]2C[C@H](OC(=O)CCCCCn3cc(COC(=O)C(C)(CO)CO)nn3)[C@@H](COC(=O)CCCCCn3cc(COC(=O)C(C)(CO)CO)nn3)O2)c1` [ImAGhD2OH], in data set [1], the pKa was 5.7. The “transition pH” value in data set [1] (transmittance at 650 nm, 26° C., at 65% of the transmittance) was “around 5.7”. In addition, the ΔTcp entry in data set [2] (between hSGQ and oSGQ) is “≈ 25 °C”. The “cloud-point temperature (Tcp)” value in data set [2] (oSGQ, pH 6-7, 650 nm) was “around 4 °C”; in data set [2] (protonated hSGQ, at pHs and 5.5, 650 nm), 29 °C. Besides, the ΔHTm in data set [3] (ImAGhD2OH, pH 5.0) stood at 64.32 kcal/mol; in data set [3] (ImAGhD2OH, pH 5.5), 62.58 kcal/mol; in data set [3] (ImAGhD2OH, pH 6:0), 11.20 kcal/mol; in data set [3] (ImAGhD2OH, pH 6.5) it was 11.80 kcal/mol; in data set [3] (ImAGhD2OH, pH 7.0) it was 15.42 kcal/mol. For the same compound, the ΔSTm came to 0.884 kcal/mol · ° C in data set [3] (ImAGhD2OH, pH 5.0); 0.912 kcal/mol · ° C in data set [3] (ImAGhD2OH, pH 5.5); 0.272 kcal/mol · ° C in data set [3] (ImAGhD2OH, pH 6:0); 0.316 kcal/mol · ° C in data set [3] (ImAGhD2OH, pH 6.5); 0.362 kcal/mol · ° C in data set [3] (ImAGhD2OH, pH 7.0). In addition, the ΔSTt came out at 0.778 kcal/mol · ° C in data set [3] (ImAGhD2OH, pH 5.0); 2.704 kcal/mol · ° C in data set [3] (ImAGhD2OH, pH 5.5); 0.0216 kcal/mol · ° C in data set [3] (ImAGhD2OH, pH 6:0); 0.0106 kcal/mol · ° C in data set [3] (ImAGhD2OH, pH 6.5); 0.0144 kcal/mol · ° C in data set [3] (ImAGhD2OH, pH 7.0). Also, the Tt in data set [3] (ImAGhD2OH, pH 5.0, aqueous solution) was 59.3 °C and 59.26 °C; in data set [3] (ImAGhD2OH, pH 5.5, aqueous solution), 54.00 °C; in data set [3] (ImAGhD2OH, pH 6:0, aqueous solution), 5.702 °C; in data set [3] (ImAGhD2OH, pH 6.5, aqueous solution) it was 4.938 °C; in data set [3] (ImAGhD2OH, pH 7.0, aqueous solution), 5.4 °C and 5.449 °C. Moreover, the “ΔGT:” value in data set [3] (setting [6]) is 30.67 kcal/mol; in data set [3] (setting [7]) it was 91.92 kcal/mol; in data set [3] (setting [8]), -0.309 kcal/mol; in data set [3] (setting [9]), -0.160 kcal/mol; in data set [3] (setting [10]) it was -0.210 kcal/mol. In addition, the ΔGTm is given as 46.64 kcal/mol in data set [3] (setting [6]); 44.34 kcal/mol in data set [3] (setting [7]); 5.76 kcal/mol in data set [3] (setting [8]); 5.48 kcal/mol in data set [3] (setting [9]); 8.18 kcal/mol in data set [3] (setting [10]). Besides, the Tm was 72.7 °C and 72.72 °C in data set [3] (ImAGhD2OH, pH 5.0, melting of SGQ assembly); 68.64 °C in data set [3] (ImAGhD2OH, pH 5.5, melting of SGQ assembly); 41.12 °C in data set [3] (ImAGhD2OH, pH 6:0, melting of SGQ assembly); 37.32 °C in data set [3] (ImAGhD2OH, pH 6.5, melting of SGQ assembly); 42.6 °C and 42.64 °C in data set [3] (ImAGhD2OH, pH 7.0, melting of SGQ assembly). The ΔHTt is 146 kcal/mol and 146.0 kcal/mol in data set [3] (ImAGhD2OH, pH 5.5); 0.123 kcal/mol in data set [3] (ImAGhD2OH, pH 6:0); 0.0522 kcal/mol in data set [3] (ImAGhD2OH, pH 6.5); 0.078 kcal/mol and 0.0784 kcal/mol in data set [3] (ImAGhD2OH, pH 7.0). Besides, the ΔTt entry in data set [3] (between oSGQ (pH 7) and hSGQ (pH 5)) is “≈ 53.9 °C”.

As for `COc1cccc2c1C(=O)c1c(O)c3c(c(O)c1C2=O)C[C@@](O)(C(=O)CO)C[C@@H]3O[C@H]1C[C@H](N)[C@H](O)[C@H](C)O1` [DOX, doxorubicin], the “cytotoxicity (MTT)” value in data set [4] is recorded as “cytotoxic”.

For the compound `Cn1ccnc1/C=C/C(=O)c1cccc(-c2nc3c(=O)[nH]c(N)nc3n2[C@H]2C[C@H](OC(=O)CCCCn3cc(COC(=O)C(C)(CO)CO)nn3)[C@@H](COC(=O)CCCCn3cc(COC(=O)C(C)(CO)CO)nn3)O2)c1` [ImAGpD2OH], in data set [1], the pKa is recorded as 5.7. The Tcp in data set [2] (hSGQ at pH 5) turned out to be 42 °C; in data set [2] (oSGQ at pH 7), 15 °C. The “shift of ΔTcp” value worked out at 13 °C in data set [2] (hSGQ at pH 5, relative to ImAGhD2OH) and 10 °C in data set [2] (oSGQ at pH 7, relative to ImAGhD2OH). In addition, the ΔHTm worked out at 57.01 kcal/mol in data set [3] (ImAGpD2OH, pH 5.0) and 101.3 kcal/mol in data set [3] (ImAGpD2OH, pH 7.0). Further, the ΔHTt in data set [3] (ImAGpD2OH, pH 5.0) is on record as 8.41 kcal/mol; in data set [3] (ImAGpD2OH, pH 7.0), 4.36 kcal/mol. Also, the ΔSTm was found to be 0.808 kcal/mol · ° C in data set [3] (ImAGpD2OH, pH 5.0) and 1.805 kcal/mol · ° C in data set [3] (ImAGpD2OH, pH 7.0). Also, the ΔSTt is listed as 0.167 kcal/mol · ° C in data set [3] (ImAGpD2OH, pH 5.0) and 0.505 kcal/mol · ° C in data set [3] (ImAGpD2OH, pH 7.0). In addition, the Tt was 50.5 °C and 50.45 °C in data set [3] (ImAGpD2OH, pH 5.0, aqueous solution); 8.6 °C and 8.631 °C in data set [3] (ImAGpD2OH, pH 7.0, aqueous solution). The “ΔGT:” value in data set [3] (setting [11]) is 5.07 kcal/mol; in data set [3] (setting [12]), -5.74 kcal/mol. Moreover, the ΔGTm is on record as 40.85 kcal/mol in data set [3] (setting [11]) and 65.20 kcal/mol in data set [3] (setting [12]). The Tm was determined as 70.52 °C in data set [3] (ImAGpD2OH, pH 5.0, melting of SGQ assembly) and 56.11 °C in data set [3] (ImAGpD2OH, pH 7.0, melting of SGQ assembly).

For the compound `Cn1ccnc1/C=C/C(=O)c1ccccc1` [ImAG std, (E)-3-(1-methyl-1H-imidazol-2-yl)-1-phenylprop-2-en-1-one], the pKa in data set [5] was 5.5 to 6.

The term pKa denotes the pH at which an ionisable group is half protonated.
